# Test results as given in patent US20240216312A1, “PPAR-AGONISTS FOR USE IN THE TREATMENT OF LIVER FAILURE” (Genfit, priority 2021, published 2024).
# Like-named read-outs stand apart in the source and are kept apart here.
# Experiments:
# [1] = test system: LPS-induced endotoxemia, Sprague Dawley rats; test: LPS-induced endotoxemia in rats, serum IL6 and IL1β (ELISA); format: in vivo; conditions: rat, 3 mg/kg/day oral 3 days before LPS 1 mg/kg i.p., 3 h after LPS
# Protocol: To evaluate the efficacy of the compounds to reduce the cytokine production in response to LPS-induced endotoxemia, male Sprague Dawley rats of 250-275 g from Janvier Labs (France) received a single intraperitoneal injection of 1 mg/kg LPS (Escherichia coli 0111:B4, #L2630, Sigma).
# Cpd.1 (3 mg/kg/day) or vehicle (Labrafil M 1944 CS, #3063, Gattefossé) was administered by oral gavage during the 3 days before LPS injection. Rats were euthanized by cervical dislocation 3 hours after treatment. Blood samples were obtained from retro-orbital sinus puncture on animals slightly asleep with isoflurane (Isoflurin 1000 mg/g, GTIN 03760087152678, Axience) just before sacrifice.
# The serum concentrations of interleukin-6 (IL6) and interleukin-1β (L1β) were determined by ELISA (SR6000B and SRLB00, respectively, R&D Systems).
# THP-1 cells = test: PMA-induced differentiation of THP-1 monocytes into macrophages, TNFα and MCP1 secretion (HTRF); format: cell-based; conditions: Homo sapiens, PMA-stimulated THP1 monocytes, 24 h
# Protocol: In order to test the efficacy of the compounds to inhibit the activation of the immune system, we used the human monocytic cell line THP-1 (Sigma). THP1 monocytes were cultured in RPMI 1640 with L-glutamine medium (#10-040-CV, Corning) supplemented with 10% fetal bovine serum (FBS, #10270, Gibco), 1% penicillin/streptomycin (#15140, Gibco) and 25 mM Hepes (H0887, Sigma) in a 5% C02 incubator at 37° C.
# To evaluate the effect of the compounds on monocyte differentiation, 2.5×10^4 THP-1 cells were cultured for 24 h in a 384-well plate in FBS-deprived culture medium containing Cpd.1 in dose ranges, as well as 5 or 100 ng/mL phorbol 12-myristate 13-acetate (PMA, #P8139, Sigma), as indicated, to induce differentiation into macrophages.
# (§1) Tumor necrosis α (TNFα) and monocyte chemoattractant protein 1 (MCP1) were measured in cell supernatants by Homogeneous Time Resolved Fluorescence (HTRF, #62[…] for TNFα, and 62HCCL2PEG for MCP1, Cisbio). Fluorescence was measured with Infinite 500 (#30019337, Tecan) to determine the concentration of cytokines.
# [2] = test system: LPS-induced endotoxemia, Sprague Dawley rats; test: LPS-induced endotoxemia in rats, hepatic markers and serum TNFα; format: in vivo; conditions: rat, 3 mg/kg/day oral 3 days before LPS, 3 h after LPS
# [3] = test system: LPS/GaIN acute liver failure, C57BL/6J mice; test: LPS/GalN model of acute liver failure in mice, hepatic gene expression, serum cytokines and albumin; format: in vivo, mouse; conditions: 3 mg/kg/day oral 3 days before LPS/GaIN, 4 h after injection
# HepG2 cells = test: Staurosporin-induced apoptosis in HepG2 cells, caspase 3/7 activity; format: cell-based, human; conditions: 16 h pre-treatment, then 10 μM staurosporin 4 h
# Protocol: In order to evaluate the effect of the compounds on human hepatocytes that undergo a cellular stress induced by staurosporin, the human hepatoblastoma-derived HepG2 cell line (ECACC, #85011430, Sigma-Aldrich) was cultured in high-glucose DMEM medium (#41965, Gibco, France) supplemented with 10% of fetal bovine serum (FBS, #10270, Gibco), 1% penicillin/streptomycin (#15140, Gibco), 1% sodium pyruvate (#11360, Gibco) and 1% MEM non-essential amino acids (#11140, Gibco) in a 5% CO2 incubator at 37° C.
# To evaluate caspase 3/7 activity, which is a surrogate marker of apoptosis, 1.5×10^4 cells were plated in a 384-well plate (#781080, Greiner, France). After cell adherence (8 hours), cells were serum starved for 16 h in the presence of 0.3 μM of compounds or vehicle. Cpd.1 was also used at 3 and 10 μM. Thereafter, cells were treated with 10 μM staurosporin (#569397, Sigma-Aldrich, Germany) supplemented with compound for additional 4 hours before cell lysis and caspase activity measurement.
# Caspase 3/7 activity was measured using Caspase Glow™ 3/7 assay (#G8093, Promega, USA). Luminescence was measured using a Spark microplate reader (#30086376, Tecan, USA). The amount of luminescence (RLU) directly correlates with caspase 3/7 activity.
# [4] = test system: CLP induced polymicrobial sepsis, C57BL6J mice; test: Cecal ligation and puncture (CLP) sepsis model in mice, survival; format: in vivo; conditions: mouse CLP
# Protocol: This study aims to investigate the efficacy of Cpd.1 in cecal ligation and puncture (CLP) model in C57BL6J (BL6) male mice. The efficacy of the test compound was evaluated based on the survival rate of the animals within the study period.
# C57BL6J male mice (supplier Janvier—France) at 9 weeks of age and weighing 23-25 g on arrival were anesthetized with 250 μL of xylazine/ketamine solution (20 mg/100 g body weight) by intraperitoneal route. A 1-1.5 cm abdominal midline incision was made, and the caecum was located and tightly ligated at half the distance between distal pole and the base of the cecum with 4-0 silk suture (mild grade). The caecum was punctured through-and-through once with a 21-gauge needle from mesenteric toward antimesenteric direction after medium ligation. A small amount of stool was extruded to ensure that the wounds were patent. Then the cecum was replaced in its original position within the abdomen, which was closed with sutures and wound clips. Mice were followed for body weight evolution and mortality rate until […].
# Cpd.1 or vehicle (Labrafil M 1944 CS, #3063, Gattefossé) was administered at 0.3 mg/kg, p.o. for three days before CLP surgery. The day of CLP (day 0), Cpd.1 was administrated 1 h before surgery and pursued daily until day 6. Experiment was terminated at day 7. […]
# Body weight and survival rate were measured for 7 days.
# THP1 macrophages [5] = test: LPS (E. coli) activation of THP1 differentiated macrophages, TNFα and MCP1 secretion; format: cell-based, human; conditions: compound 24 h, then 100 ng/mL LPS E. coli 6 h
# Protocol: (§2) In order to test the efficacy of the compounds on macrophage activation and pro-inflammatory cytokine production, 2.5×10^4 THP-1 cells were cultured in a 384-well plate and treated with 100 ng/mL PMA (#P8139, Sigma) for 24 h to induce differentiation into macrophages.
# Then, medium was removed and FBS-deprived medium containing the compound of formula (I) was added for 24 h. Finally, THP1 macrophages were stimulated with 100 ng/mL LPS (E. coli 055:B5, #L4005, Sigma) for 6 h.
# THP1 macrophages [6] = test: LPS (Klebsiella pneumoniae) activation of THP1 macrophages, MCP1 and TNFα secretion (HTRF); format: cell-based, human
# Protocol: as §2
# Then, medium was removed and FBS-deprived medium containing 1 or 10 μM compound was added for 24 h. Finally, THP1 macrophages were stimulated for 6 h with 100 ng/mL LPS (Klebsiella pneumoniae, #L4268, Sigma-Aldrich).
# as §1, with “Monocyte chemoattractant protein 1 (MCP1) and Tumor” for “Tumor”, “(TNFα)” for “(TNFα) and monocyte chemoattractant protein 1 (MCP1)”
# In order to evaluate the effect of the compounds according to the invention on LPS-induced cytokines production by macrophages, the percentage of inhibition over the vehicle condition were calculated for each compound at 1 and 10 μM.
structure (smiles),measurement,setting,value
"COC(CCc1cc(C)c(OC(C)(C)C(=O)O)c(C)c1)c1ccc(OC(F)(F)F)cc1 (stereo not shown) [Cpd. 1, 2-[4-(3-methoxy-3-(4-(trifluoromethoxy)phenyl)propyl)-2,6-dimethylphenoxy]-2-methylpropanoic acid]",reduction of serum IL1β level,[1],31%
same,reduction of serum IL6 level,[1],40%
same,inhibition at 1 µM,THP-1 cells; read-out: inhibition of MCP1 content in the supernatant,~50%
same,inhibition at 1 µM,THP-1 cells; read-out: inhibition of TNFα content in the supernatant,~50%
same,serum total bilirubin level compared to vehicle,[2],completely restored
same,decrease of hepatic Ccl2 mRNA expression,[3]; mouse liver,52%
same,decrease of hepatic IL1b mRNA expression,[3]; mouse liver,46%
same,decrease of hepatic IL6 mRNA expression,[3]; mouse liver,52%
same,decrease of hepatic TNF mRNA expression,[3]; mouse liver,40%
same,reduction of hepatic Cd68 mRNA expression,[3]; mouse liver,41%
same,reduction of circulating CCL2 level compared to vehicle,[3]; mouse serum,59%
same,reduction of circulating IL6 level compared to vehicle,[3]; mouse serum,62%
same,reduction of circulating TNFα level compared to vehicle,[3]; mouse serum,51%
same,reduction of staurosporin-induced caspase activity,HepG2 cells; 0.3 μM to 10 μM,dose-dependent manner
same,inhibition at 0.3 µM,"HepG2 cells; Homo sapiens, HepG2, 0.3 μM, read-out: % Inhibition of caspase activity over mean Veh.",26%
same,side effects after each administration,[4]; 0.3 mg/kg p.o.,No side effect
same,increase in survival rate compared to CLP+Vehicle group,"[4]; 0.3 mg/kg p.o. from 3 days before surgery, daily, Day 7",47%
same,reduction of TNFα secretion,THP1 macrophages [5],potent at reducing
same,reduction of MCP1 secretion,THP1 macrophages [5]; all doses tested,overpassing the untreated condition
same,inhibition at 1 µM,"THP1 macrophages [6]; Homo sapiens, THP-1, 1 μM, 24 h, then LPS Klebsiella 6 h, read-out: % inhibition of MCP1 secretion over mean Veh.",108%
same,inhibition at 10 µM,"THP1 macrophages [6]; Homo sapiens, THP-1, 10 μM, 24 h, then LPS Klebsiella 6 h, read-out: % inhibition of MCP1 secretion over mean Veh.",120%
same,production of MCP1 induced by LPS Klebsiella,"THP1 macrophages [6]; THP1 macrophages, in words, concentration not given",overpassing the untreated condition
